The test system of the test is RbAp48 mRNA expression in hippocampus. Kind of test: RbAp48 transcript in situ hybridization in adult hippocampus after injection of kainic acid (synaptic stimulation). The class given is in vivo, mouse. The following applies: wild type mice. How it is done: FIG. 14: RbAp48 transcript distribution in the adult hippocampus of wild type mice in either control conditions (injection of saline) of after injection of kainic acid (synaptic stimulation). Coronal cryosections were hybridized with radio-labelled oligonucleotides specific for RbAp48. […] This upregulation of RbAp48 lasted for four hours (8 hr to 12 hr time points).
RNA In Situ Hybridizations: RNA in situ hybridizations were performed on fresh frozen adult brain slices using 40-45 base anti-sense oligonucleotides^37. The oligonucleotides used for the detection of RbAp48-DN-Flag and RbAp48 transcripts can be found in supplemental table 3.
Treatment with Kainic Acid Kainic acid (Sigma) was injected intraperitoneally as previously described^42
Because RbAp48 regulates histone acetylation, it was explored whether RbAp48-DN affects the steady state levels of histone acetylation in the hippocampal formation using immunohistochemistry and image quantification analysis to measure histone acetylation. The initial focus was on the DG. […] To test for spatial specificity, the CA1 subregion was examined and no significant reduction in histone acetylation (FIGS. 12c & 12d) was found. As with behavior and fMRI, the effect of RbAp48-DN on H2B and H4 acetylation in the adult DG was reversed when its expression was turned off (mice on dox; FIGS. 12c & 12d).

Consider `C=C(C)[C@H]1CN[C@H](C(=O)O)[C@H]1CC(=O)O` [kainic acid], for which the “Duration of upregulation of RbAp48” value (dentate gyrus, 8 hr to 12 hr time points after kainic acid) is “four”. Moreover, under “intraperitoneal kainic acid vs saline, eight hours after application, radio-labelled oligonucleotide in situ hybridization”, the “Expression of RbAp48 (transcript distribution in adult hippocampus)” value is “upregulated specifically in the dentate gyrus”.

The values are drawn from US9387263B2, “RbAp48 transgenic mice for drug discovery in age-related memory decline” (THE TRUSTEES OF COLUMBIA UNIVERSITY IN THE CITY OF NEW YORK, priority 2011, dated 2016).
